This note sets out measurements from ChEMBL document CHEMBL1123590, “Dopamine agonists related to 3-allyl-6-chloro-2,3,4,5-tetrahydro-1-(4-hydroxyphenyl)-1H-3-benzaz epi ne-7, 8-diol. 6-Position modifications” (J Med Chem, 1987).

Where only a bound is given, the exact number is not on record here.

In one test the target is D(1A) dopamine receptor (Rattus norvegicus, UniProt P18901). The experiment in a line: Dopamine agonist (Dopamine receptor D1) activity was measured as increase in cAMP formation relative to maximum increase in dopamine-sensitive adenylate cyclase. The test is classed as functional.
Sequence of D(1A) dopamine receptor (P18901 whole entry, the tested form may be a part): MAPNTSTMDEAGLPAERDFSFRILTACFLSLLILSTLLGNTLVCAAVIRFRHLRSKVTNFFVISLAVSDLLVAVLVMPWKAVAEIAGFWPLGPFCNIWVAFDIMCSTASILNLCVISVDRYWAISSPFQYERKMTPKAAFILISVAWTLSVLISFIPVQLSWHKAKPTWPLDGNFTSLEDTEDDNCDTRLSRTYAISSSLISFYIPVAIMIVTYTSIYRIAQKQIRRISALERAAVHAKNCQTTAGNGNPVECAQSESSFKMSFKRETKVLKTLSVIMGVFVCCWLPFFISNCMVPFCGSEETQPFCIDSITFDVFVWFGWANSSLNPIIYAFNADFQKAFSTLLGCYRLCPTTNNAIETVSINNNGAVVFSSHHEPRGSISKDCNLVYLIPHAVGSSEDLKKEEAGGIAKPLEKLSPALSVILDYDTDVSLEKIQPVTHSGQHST
Test [1] concerns the target T1, D(2) dopamine receptor (Homo sapiens, UniProt P14416). The experiment in a line: Dopamine receptor D2 agonist activity was determined for inhibition of release of NE in an isolated perfused rabbit ear artery preparation.
For the next test, the species on record is Rattus norvegicus. The experiment in a line: Maximum response of adenylate cyclase to that of maximum response caused by dopamine was measured. The test is classed as functional. Further details: unit not given here.
Test [2] has as its target T1, D(2) dopamine receptor. The experiment in a line: Dopamine receptor D2 agonist activity was determined for inhibition of the constrictor response to electrical stimulation in an isolated perfused rabbit ear artery preparation. The class given is functional, Oryctolagus cuniculus. The note with it: target entry is the homologue from another species.

T1 sequence (P14416 whole entry, the tested form may be a part): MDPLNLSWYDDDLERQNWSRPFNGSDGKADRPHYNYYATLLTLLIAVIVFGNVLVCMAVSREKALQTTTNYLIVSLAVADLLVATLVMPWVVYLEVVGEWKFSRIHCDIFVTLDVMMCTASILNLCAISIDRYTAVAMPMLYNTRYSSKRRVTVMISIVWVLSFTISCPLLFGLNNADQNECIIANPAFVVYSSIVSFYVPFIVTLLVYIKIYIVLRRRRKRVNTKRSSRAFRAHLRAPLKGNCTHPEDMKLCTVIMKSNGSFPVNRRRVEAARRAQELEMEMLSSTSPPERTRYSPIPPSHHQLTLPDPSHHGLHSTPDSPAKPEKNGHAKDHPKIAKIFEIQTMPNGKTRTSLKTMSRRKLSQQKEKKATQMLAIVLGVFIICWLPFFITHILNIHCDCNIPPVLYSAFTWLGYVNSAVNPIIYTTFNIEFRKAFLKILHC

Take `C=CCN1CCc2c(cc(O)c(O)c2Cl)C(c2ccc(O)cc2)C1.CS(=O)(=O)O` (stereo unspecified): the EC50 at D(1A) dopamine receptor was 15 nM; on D(2) dopamine receptor [1] it was 122 nM. Besides, in the test listed under Rattus norvegicus, the Max response was determined as 80.

For the compound `Br.C=CCN1CCc2cc(O)c(O)cc2C(c2ccc(O)cc2)C1` (stereo unspecified), the EC50 was determined as 400 nM on D(1A) dopamine receptor and 253 nM at D(2) dopamine receptor [2]. The same compound gave a Max response in the test listed under Rattus norvegicus of 35.

Regarding `C=CCN1CCc2c(cc(O)c(O)c2Br)C(c2ccc(O)cc2)C1.CS(=O)(=O)O` (stereo unspecified), the EC50 on D(1A) dopamine receptor amounted to 50 nM; on D(2) dopamine receptor [2], 174 nM. Besides, the Max response in the test listed under Rattus norvegicus was determined as 78.

On to `C=CCN1CCc2c(cc(O)c(O)c2C)C(c2ccc(O)cc2)C1.Cl` (stereo unspecified), for which the EC50 on D(1A) dopamine receptor is 400 nM; on D(2) dopamine receptor [2], above 10000 nM. The same compound displayed a Max response in the test listed under Rattus norvegicus of 69.

Turning to `C=CCN1CCc2cc(O)c(O)cc2C(c2ccccc2)C1.Cl` (stereo unspecified), the Max response in the test filed under Rattus norvegicus came out at 45.

For `C=CCN1CCc2c(cc(O)c(O)c2F)C(c2ccc(O)cc2)C1.CS(=O)(=O)O` (stereo unspecified), the EC50 amounted to 100 nM at D(1A) dopamine receptor and 137 nM at D(2) dopamine receptor [2]. The same compound returned a Max response in the test filed under Rattus norvegicus of 89.
